Experimental data reported in US20240293326A1, “CONTROLLED RELEASE FORMULATIONS FOR THE TREATMENT OF MALARIA” (KARICI DIAGNOSTICS INC., priority 2018, published 2024).

Columns and labels:
[1] = Dissolution assay of tablets (release kinetics, SGF 2 h then SIF); format: physicochemical
Description: Dissolution assays of formulated monolithic tablets were done in simulated gastric fluid (SGF, pH 1.5) for 2 h and continued in simulated intestinal fluid (SIF, pH 6.8) as referred by USP method 40 (USP, 2017a).
The Pf (Pf, MD/Pf or CMS-Pf) release kinetics from different formulations (Pf, MD/Pf and CMS-Pf monolithic tablet dosage form) were recorded at 100 rpm and 37° C. using a Distek dissolution system 2100A (Betatek Inc., Markham, ON, Canada). At predetermined intervals, an established volume of samples (1 mL) was withdrawn from dissolution media, filtered (0.45 μm) and the released Pf was quantified by UV measurement at 280 nm.
CMS-Pf complexes were prepared as detailed above in Example 1. Briefly, CMS was dispersed at 8.5% in water. After homogenization and obtaining a homogenous suspension, an amount of 50 mL of CMS suspension was slowly added in 450 ml of Pf 21.5% previously dissolved in ethanol (60%). Similar operation was carried out for the CMS and for CMC (high viscosity) with a degree of substitution of 0.8. The final ratio Pf/carboxyl polymer (w/w) was respectively about of 96/4. The solutions were maintained under agitation at room temperature until spray-drying to obtain powders using the following parameters: 1) inlet temperature 150° C.; 2) outlet temperature 100° C.; 3) spray flow 500 L/h, and 4) aspirator setting at 38 m^3/h. During the drying process, the polymeric excipient/Pf suspension was continuously gently stirred to prevent sedimentation. The resulting powder was used to prepare monolithic tablets (12.5 mm diameter, 3.0 mm thickness) containing 400 mg of Pf by direct compaction. The kinetics of the drug release were recorded using the Distek™ dissolution (100 rpm) and the detection of Pf was monitored at 280 nm, first in a dissolution medium made of 1 L of SGF (pH 1.5) during 2 h. Then, the tablets were transferred in 1 L of SIF (pH 7.2) at 37° C.) (USP 32 method).
For each tablet, the dissolution was started in 1 L of SGF (pH 1.5) for 2h and followed in 1 L of SIF (pH 7.2) at 37° C., according to USP 32. The drug release kinetics were recorded using a Distek™ dissolution 2100A paddle system at 100 rpm.
The quantification of Pf was carried out at 280 nm, whereas the dosage of artemisinin was realized by spectrophotometry at 734 nm after filtration and dissolving artemisinin in the acetone/water (ratio 40:60) solvent containing ABTS (2,2′-azino-bis[3-ethylbenzothiazoline-6-sulphonate]).
Dissolution assay was done first in simulated gastric fluid (SGF, pH 1.5) for 2 h and then in simulated intestinal fluid (SIF, pH 6.8) as referred by USP method 40 (2017a). Release kinetics from different formulations were followed at 100 rpm and 37° C. using a Distek dissolution system 2100A (Betatek Inc., Markham, ON, Canada) with a Distek TCS 0200 (North Brunswick, NJ, USA). At predetermined intervals (0.5, 1, 2, 4, 6, 8 and10 h), released Pf and Arte were quantified using the appropriate method (described above).
For Pf dosage, a volume (5 mL) was withdrawn from dissolution media, properly filtered (0.45 μm) and diluted before absorbance measurement at 280 nm. To quantify released Arte, the insoluble precipitate was recuperated, washed several times to remove all Pf residues and quantified as previously described.
Dissolution assays was followed for each tablet first in simulated gastric fluid (SGF, pH 1.5) for 2 h and then continued in simulated intestinal fluid (SIF, pH 6.8) as referred by USP method 40 (USP, 2017c). Release kinetics from both formulation types (containing CMP-Pf or pCMC-Pf) were followed using a Distek dissolution system 2100A (Betatek Inc., Markham, ON, Canada) with a Distek TCS 0200 (North Brunswick, NJ, USA) at 100 rpm and 37° C. At predetermined intervals (0.5, 1, 2, 4, 6, 8, 10 and 12 h), released Pf and Arte from tablets were quantified by absorbancy at 280 nm (for Pf) and at 734 nm (for Arte, using ABTS•+ radical as probe reagent). […]

[2] = In vitro Arte and Pf interaction / stability in SGF (FTIR, NMR, antioxidant capacity); format: physicochemical; conditions: SGF pH 1.5, 37° C., 2 h, one agent in the presence of the other
Description: Since both bioactive agents, Art and Pf will be used in a combination therapy in the same dosage form, there is a risk of molecular interactions to be considered. […] These interactions could also cause a moderate loss of activity due to the partial degradation of the endoperoxide bridge of artemisinin. […] After incubation, Arte was separated from Pf by decantation, washed and dried before FTIR and RMN analyses; whereas the Pf solution (in presence or not of Arte) was filtered and the antioxidant capacity was evaluated as previously described in the section of antioxidant properties. In vitro interaction of Arte with CMC-Pf was evaluated in SGF. Arte and CMC-Pf were incubated in SGF (pH 1.5, at 37° C.) separately or one in the presence of each other (FIG. 31).

[3] = monolithic tablets with CMC-Pf or pCMC-Pf, Example 6

Which results are given for `C[C@@H]1CC[C@H]2[C@@H](C)C(=O)O[C@@H]3O[C@@]4(C)CC[C@@H]1[C@]32OO4` [Artemisinin]?
Time to completed release of Artemisinin ([1]; bi-layer tablet, Artemisinin 100 mg + Explotab layer, Example 3): 60 min; Art released after 2 h in SGF ([1]; monolithic tablet, 400 mg CMC/Pf + 100 mg artemisinin, Example 4): about 45%; Time to complete release of Arte ([1]; monolithic tablet, in SIF, Example 5): 8 h; Time to complete release of Art ([1]; monolithic tablet, Example 4): 8 h; Arte released after 2 h in SGF ([1]; monolithic tablet, Example 5): about 51%; Arte released after 2 h in SGF [1, 3]: about 51%; Time to complete release of Arte [1, 3]: 8 h; Degradation in SGF (FTIR, 1H NMR) ([2]; listed as Arte): No degradation; Degradation in SGF (FTIR, 1H NMR) ([2]; listed as artemisinin): no degradation
